This is an account of results in ChEMBL document CHEMBL1201862, “PubChem BioAssay data set” (2004).

Among the test systems are M14; SN12C; IGROV-1; SW-620; UACC-62; OVCAR-8; SK-OV-3; LXFL 529; HCT-15; Malme-3M; SK-MEL-5; SF-268; UO-31; OVCAR-5; HCC 2998; NCI-H522.
What all share (test): NCI anticancer screen, dose series, 48 h

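Assay format: 96-well plates, 48-hour exposure. The concentration for 50% growth inhibition is given as GI50.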 The source made the active and inactive calls. Rule as the data show it: active = GI50 up to about 1.1 µM and inactive = higher.

With `O=C(C(=O)c1cc2ccccc2[nH]1)c1cc2ccccc2[nH]1`, the GI50 is 213 µM (inactive) in the experiment on M14; 237 µM (inactive) with SN12C; > 347 µM (inactive) in the experiment on IGROV-1; 153 µM (inactive) with SW-620; > 347 µM (inactive) in the experiment with UACC-62; > 224 µM (inactive) in the experiment on OVCAR-8. Moreover, the GI50 is > 347 µM (inactive) with SK-OV-3; > 210 µM (inactive) with LXFL 529; 94.2 µM with HCT-15; 152 µM (inactive) in the experiment with Malme-3M; > 301 µM (inactive) with SK-MEL-5; > 347 µM (inactive) with SF-268. In addition, the GI50 is > 347 µM (inactive) in the experiment on UO-31, > 347 µM (inactive) with OVCAR-5, > 347 µM (inactive) with HCC 2998 and 13.8 µM (inactive) with NCI-H522.
As to `O=c1[nH]c(=O)n(C2OC(CO)C(O)C2O)cc1OCc1ccccc1` (centres undefined), the GI50 with M14 was > 100 µM (inactive); in the experiment with SN12C, > 100 µM (inactive); in the experiment on IGROV-1 it was > 100 µM (inactive); in the experiment on SW-620, > 57 µM (inactive); in the experiment with UACC-62, > 100 µM (inactive); in the experiment on OVCAR-8, > 77.6 µM (inactive). The GI50 in the experiment on SK-OV-3 was > 100 µM (inactive); in the experiment with LXFL 529, > 80.4 µM (inactive); in the experiment with HCT-15 it was > 59 µM; in the experiment on Malme-3M it was > 100 µM (inactive); in the experiment with SK-MEL-5 it was > 100 µM (inactive); with SF-268, > 100 µM (inactive). Further, the GI50 in the experiment on UO-31, with OVCAR-5, in the experiment on HCC 2998 and with NCI-H522 was > 100 µM (inactive) in each case.
In the case of `N#CC(/C(=N/NC(=N)N)C(=O)Nc1ccccc1[N+](=O)[O-])c1nc(-c2ccc([N+](=O)[O-])cc2)cs1` (centres undefined), the GI50 with M14, in the experiment with SN12C, in the experiment on IGROV-1, in the experiment on SW-620, in the experiment with UACC-62 and in the experiment on OVCAR-8 was > 100 µM (inactive) each time. Besides, the GI50 with SK-OV-3 is > 100 µM (inactive); with LXFL 529, > 100 µM (inactive); with HCT-15, > 100 µM; in the experiment on Malme-3M it was > 100 µM (inactive); in the experiment with SK-MEL-5 it was > 100 µM (inactive); in the experiment on SF-268 it was > 100 µM (inactive). In addition, the GI50 with UO-31, in the experiment with OVCAR-5, in the experiment with HCC 2998 and in the experiment with NCI-H522 was > 100 µM (inactive) throughout.
In the case of `C=CCNC(=S)N/C=C1\C(=O)Oc2ccccc2C1=O`, the GI50 in the experiment with M14 is 63.4 µM (inactive); in the experiment on SN12C, 46.5 µM (inactive); with IGROV-1, 41.6 µM (inactive); in the experiment with SW-620, 74.6 µM (inactive); in the experiment on UACC-62, 46.3 µM (inactive); in the experiment on OVCAR-8 it was 58.5 µM (inactive). For the same molecule, the GI50 was 44.4 µM (inactive) with SK-OV-3; > 100 µM (inactive) in the experiment on LXFL 529; 60.5 µM with HCT-15; 27.4 µM (inactive) in the experiment on Malme-3M; 43.8 µM (inactive) in the experiment on SK-MEL-5; 36 µM (inactive) with SF-268. Besides, the GI50 with UO-31 is 27.5 µM (inactive); with OVCAR-5 it was 62.4 µM (inactive); in the experiment with HCC 2998, 68.4 µM (inactive); in the experiment on NCI-H522, 65.6 µM (inactive).
For the molecule `COc1ccc(O)cc1C(O)c1ccccc1` (centres undefined), the GI50 in the experiment with M14, in the experiment with SN12C, in the experiment with IGROV-1, in the experiment on SW-620, in the experiment on UACC-62 and in the experiment on OVCAR-8 was > 100 µM (inactive) in each case. For the same molecule, the GI50 with SK-OV-3 is > 100 µM (inactive); in the experiment with LXFL 529, > 100 µM (inactive); with HCT-15, > 100 µM; in the experiment with Malme-3M, > 100 µM (inactive); with SK-MEL-5, > 100 µM (inactive); in the experiment with SF-268, > 100 µM (inactive). In addition, the GI50 in the experiment on UO-31, in the experiment on OVCAR-5, in the experiment on HCC 2998 and in the experiment on NCI-H522 was > 100 µM (inactive) in each case.
Turning to `COc1ccc(C2=Nc3ccccc3N=C(SC)C2)cc1`, the GI50 was 59.7 µM (inactive) in the experiment with M14; 66.7 µM (inactive) in the experiment on SN12C; > 100 µM (inactive) with IGROV-1; 16.9 µM (inactive) in the experiment on SW-620; > 100 µM (inactive) in the experiment with UACC-62; 59.3 µM (inactive) in the experiment on OVCAR-8. Also, the GI50 is > 100 µM (inactive) with SK-OV-3; 46.1 µM (inactive) in the experiment on LXFL 529; 33.7 µM in the experiment on HCT-15; > 100 µM (inactive) in the experiment on Malme-3M; 39.8 µM (inactive) in the experiment with SK-MEL-5; > 100 µM (inactive) in the experiment on SF-268. For the same molecule, the GI50 is 47.3 µM (inactive) in the experiment on UO-31, 44 µM (inactive) in the experiment on OVCAR-5, 28.7 µM (inactive) in the experiment with HCC 2998 and 22.9 µM (inactive) in the experiment with NCI-H522.
For `c1ccc2c(c1)CCCc1cc3ccccc3nc1-2`, the GI50 in the experiment with M14, in the experiment with SN12C, with IGROV-1, with SW-620, in the experiment with UACC-62 and in the experiment on OVCAR-8 was > 100 µM (inactive) throughout. The GI50 with SK-OV-3 is 38.7 µM (inactive); in the experiment with LXFL 529, > 100 µM (inactive); with HCT-15, > 100 µM; with Malme-3M, > 100 µM (inactive); in the experiment on SK-MEL-5, 92.5 µM (inactive); in the experiment on SF-268 it was 92.5 µM (inactive). Besides, the GI50 in the experiment with UO-31 is > 100 µM (inactive); in the experiment with OVCAR-5, > 100 µM (inactive); in the experiment with HCC 2998 it was > 100 µM (inactive); with NCI-H522, 82.4 µM (inactive).
For the molecule `O=C1Nc2ccccc2N/C1=C\C(=O)c1ccccc1O`, the GI50 with M14, in the experiment with SN12C, with IGROV-1, with SW-620, with UACC-62 and with OVCAR-8 was > 100 µM (inactive) in each case. In addition, the GI50 in the experiment with SK-OV-3 was > 100 µM (inactive); with LXFL 529, > 100 µM (inactive); with HCT-15, > 100 µM; in the experiment with Malme-3M it was > 100 µM (inactive); with SK-MEL-5, > 100 µM (inactive); in the experiment with SF-268 it was > 100 µM (inactive). Further, the GI50 in the experiment on UO-31, with OVCAR-5, in the experiment on HCC 2998 and in the experiment with NCI-H522 was > 100 µM (inactive) each time.
Turning to `Brc1cccc(/C=N/C23CC4CC(CC(C4)C2)C3)c1`, the GI50 in the experiment with M14, with SN12C, in the experiment on IGROV-1, in the experiment with SW-620, in the experiment with UACC-62 and in the experiment with OVCAR-8 was > 100 µM (inactive) in each case. The GI50 in the experiment on SK-OV-3 was > 100 µM (inactive); in the experiment with LXFL 529 it was > 100 µM (inactive); with HCT-15 it was > 100 µM; in the experiment with Malme-3M, > 100 µM (inactive); with SK-MEL-5, > 100 µM (inactive); in the experiment on SF-268, > 100 µM (inactive). Besides, the GI50 with UO-31, with OVCAR-5, with HCC 2998 and in the experiment with NCI-H522 was > 100 µM (inactive) each time.
